{"source": "patent US9642839B2", "about": "“Substance having tyrosine kinase inhibitory activity and preparation method and use thereof” (Institute of Radiation Medicine, China Academy of Military …, priority 2013, dated 2017)", "key": {"A549 cells": {"system": "A549 cells", "test": "In vitro antitumor activity, MTS cell proliferation", "type": "cell-based, human", "conditions": "Homo sapiens, A549, lung cancer, 72 hours", "protocol": "(§1) Method: 14 cell lines (MKN-45 cells, MHCC97-L cells, MHCC97-H cells, HLE cells, HepG2 cells, 7721 cells, L02 cells, A375 cells, H460 cells, A549 cells, SK-N-SH cells, MCF-7 cells, K562 cells, and Ba/F3-Tpr-Met cells (pre-B cells which are malignantly transformed by the c-Met constitutive active mutant Tpr-Met) were seeded into 96-well plate at 1×10^4 cells/well, and each well was added with 150 μl DMEM medium (purchased from Invitrogen) containing 10% fetal bovine serum (purchased from Hyclone). When cell adherent was observed, different concentrations of 2-indolone derivatives (concentrations at 0.1-10 μM) were added, in addition to the negative control (vehicle control group) and blank control (medium group). After culture at 37° C., 5% CO2 for 72 hours, MTS reagent (Promega Corporation) were added for further culture for 2-4 h."}, "MHCC97-H cells [1]": {"system": "MHCC97-H cells", "test": "In vitro antitumor activity, MTS cell proliferation", "type": "cell-based, human", "conditions": "Homo sapiens, MHCC97H, hepatocellular cancer, 72 hours", "protocol": "as §1"}, "L02 cells": {"system": "L02 cells", "test": "MTS cell proliferation, normal liver cells", "type": "cell-based", "conditions": "Homo sapiens, L02, normal hepatic cells, 72 hours", "protocol": "[…] After culture at 37° C., 5% CO2 for 72 hours, MTS reagent (Promega Corporation) were added for further culture for 2-4 h."}, "HepG2 cells": {"system": "HepG2 cells", "test": "Subcutaneous tumor-bearing nude mice model", "type": "in vivo", "conditions": "HepG2 s.c. nude mice; 16 mg/kg intraperitoneal, once every 24 h, 6 administrations; by tumor weight", "source_text": "(§2) The cells were washed with PBS twice, and suspended."}, "NCI-H460 cells": {"system": "NCI-H460 cells", "test": "Subcutaneous tumor-bearing nude mice model", "type": "in vivo", "conditions": "NCI-H460 s.c. nude mice; 16 mg/kg intraperitoneal, once every 24 h, 6 administrations; by tumor weight", "source_text": "as §2"}, "MHCC97-H cells [2]": {"system": "MHCC97-H cells", "conditions": "MHCC97-H s.c. nude mice; 16 mg/kg intraperitoneal, once every 24 h, 6 administrations; by tumor weight", "protocol": "Establishment of tumor-bearing models: Tumor cells were cultured in T75 flasks until achieving a logarithmical growth. The cells were trypsinized and DMEM medium containing 10% fetal bovine serum was added to terminate trypsinization. The cells were washed with PBS twice, and suspended. Cell concentration was adjusted to 5×10^7 cells/ml, and 150 μl cell suspension was injected into the right flank of the mice. After inoculation, the tumors in the nude mice were observed every day, and the mice were grouped when the tumors reached a volume of 100 mm^3. Each nude mouse was numbered, and the tumor size was measured. The data was entered into EXCEL for sorting and thus excluding extreme values. Random numbers were generated corresponding to the number of the mice, and the mice were randomly grouped using these random numbers.\nAdministration: intraperitoneal injection was used at doses of 4 mg/kg, 8 mg/kg, and 16 mg/kg, respectively. The vehicle control group was injected with the same volume of DMSO. The mice received treatment once every 24 h, and a total of 6 times of administrations were given. During administration, changes of tumor size (length×width×width/2) were monitored and recorded in a real-time manner, and the results were expressed as mean±standard deviation."}, "MHCC-97H cells": {"system": "MHCC-97H cells", "test": "Liver orthotopic tumor model", "type": "in vivo, nude mice", "conditions": "for Tumor inhibition rate / Weight of tumor: 6 administrations; for Average weight (X ± S), End: animal weight at end, in g (unit assumed)", "source_text": "The medium was changed once every 1-2 days. […] The subcultured tumor cells were digested under a sterile condition and resuspended with sodium chloride injection, and subcutaneously inoculated at the right flank of nude mice. When the subcutaneous tumors in the nude mice grew to a volume about 1,500-2,000 mm^3, the tumor mass was removed under a sterile condition, and cut into pieces in a size about 1.0×1.0 mm for future use. Then the nude mice to be inoculated were anesthetized and fixed on the operating table. The abdominal skin was disinfected, and an incision about 1 cm was made in the left upper abdomen to expose the liver, with the surgical site covered. The prepared tumor piece was placed into a dedicated inoculation trocar, and was implanted into the liver by using the trocar. The bleeding site of the wound was treated with sterilized gauze or sterilized cotton swab to stop the bleeding. Then liver which underwent surgery was placed back into the abdominal cavity of mice. The abdominal muscles and skin were sutured with 4/0 gauge surgical needle sequentially. After normal feeding of the mice for 2 weeks, size of liver tumor was observed under B-ultrasound.\nMethod: Animal models were randomized into vehicle control group, intraperitoneal low dose group (18 mg/kg), intraperitoneal high dose group (36 mg/kg), and gavage group (36 mg/kg), with 9 mice each group. The mice received treatment once every 24 hours. Intraperitoneal administration was done by intraperitoneal injection. The vehicle control group received DMSO injected intraperitoneally. Six times of administration were given. After the last administration, animals were kept for another 3 weeks, then sacrificed by cervical dislocation, and dissected to obtain liver. Visible tumor was dissected and weighed."}, "lung cancer cell A549": {"system": "lung cancer cell A549", "test": "Lung orthotopic tumor formation model", "type": "in vivo, BALB/c nude mice", "conditions": "for Tumor inhibition rate / Weight of tumor: 6 administrations; for Average weight (X ± S), End: animal weight at end, in g (unit assumed)", "protocol": "The medium was changed once every 1-2 days. […] The subcultured tumor cells were digested into suspensions under a sterile condition, and orthotopically injected into BALB/c nude mice at the left chest between the third and fourth ribs (3.0×10^6 cells/mouse, 30 μl). The inoculation needle entered into the pulmonary lobe at a depth of about 5 mm. The inoculation day is labeled as DO. Seven days later, animals were weighed and randomized into groups based on body weight.\nMethod: Animal models were randomized into three groups, vehicle control group (DMSO injected intraperitoneally), intraperitoneal low dose group (18 mg/kg), and intraperitoneal high dose group (36 mg/kg). The animals received treatment once every 24 hours. After 6 times of successive administration, animals were kept for another 30 days. At the end of this experiment, animals were sacrificed, and dissected to obtain lungs. Tumor was dissected and weighed."}, "TrkB": {"molecular_target": "TrkB (Homo sapiens, UniProt Q16620)", "sequence (Q16620 32-822, species assumed)": "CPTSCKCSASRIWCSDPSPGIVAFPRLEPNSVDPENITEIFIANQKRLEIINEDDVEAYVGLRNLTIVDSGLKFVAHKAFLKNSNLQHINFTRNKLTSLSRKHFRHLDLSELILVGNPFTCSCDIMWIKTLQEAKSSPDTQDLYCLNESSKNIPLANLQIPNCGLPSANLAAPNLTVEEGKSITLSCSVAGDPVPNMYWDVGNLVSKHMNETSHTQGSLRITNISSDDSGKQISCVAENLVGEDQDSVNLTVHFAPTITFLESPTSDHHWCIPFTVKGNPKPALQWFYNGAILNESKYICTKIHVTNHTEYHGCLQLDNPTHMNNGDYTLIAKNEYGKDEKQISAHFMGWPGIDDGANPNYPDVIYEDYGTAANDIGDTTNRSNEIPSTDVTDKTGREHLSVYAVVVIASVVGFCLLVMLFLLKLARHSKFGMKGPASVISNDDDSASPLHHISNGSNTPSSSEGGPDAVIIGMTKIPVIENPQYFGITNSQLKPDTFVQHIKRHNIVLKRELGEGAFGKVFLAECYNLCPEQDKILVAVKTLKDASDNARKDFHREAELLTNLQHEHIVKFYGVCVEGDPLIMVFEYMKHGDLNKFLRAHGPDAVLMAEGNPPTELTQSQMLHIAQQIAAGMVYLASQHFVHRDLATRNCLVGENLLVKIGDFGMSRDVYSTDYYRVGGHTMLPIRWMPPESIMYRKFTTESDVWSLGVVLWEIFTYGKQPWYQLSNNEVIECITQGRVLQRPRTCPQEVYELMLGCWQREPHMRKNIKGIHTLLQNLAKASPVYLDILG", "test": "Western blot, BDNF-induced TrkB phosphorylation and signaling pathway in SK-N-SH cells", "type": "cell-based", "conditions": "0.05-1.0 μM, 200 ng/ml BDNF", "protocol": "The medium was changed once every 1-2 days. […] 500 ng/mL NGF or 200 ng/ml BDNF (if not added, marked as “-”) were added to stimulate the cells for 5 min. After cell lysis, total protein was extracted. Western blot assay was carried out with TrkA phosphorylated and non-phosphorylated (p-TrkA) antibodies, TrkB phosphorylated and non-phosphorylated (p-TrkB) antibodies, ERK phosphorylated and non-phosphorylated (p-ERK) antibodies, Akt phosphorylated and non-phosphorylated (p-Akt) antibodies, and GAPDH antibody."}, "[3]": {"conditions": "intraperitoneal high dose 36 mg/kg"}, "[4]": {"conditions": "intraperitoneal low dose 18 mg/kg"}}}
{"molecule": "Cc1ccccc1NS(=O)(=O)c1ccc2c(c1)/C(=C/c1nc3ccccc3[nH]1)C(=O)N2", "note": "[Indo 5, 3-(1H-benzimidazol-2-methylene)-5-(2-methylphenylaminosulfo)-2-indolone]", "values": [{"measurement": "IC50", "setting": "A549 cells", "result": 2190, "unit": "nM"}, {"measurement": "IC50", "setting": "MHCC97-H cells [1]", "result": 1030, "unit": "nM"}, {"measurement": "IC50", "setting": "L02 cells", "result": 20900, "unit": "nM"}, {"measurement": "Tumor inhibition rate", "setting": "HepG2 cells", "result": 61, "unit": "%"}, {"measurement": "Tumor inhibition rate", "setting": "NCI-H460 cells", "result": 59, "unit": "%"}, {"measurement": "Tumor inhibition rate", "setting": "MHCC97-H cells [2]", "result": 61, "unit": "%"}, {"measurement": "Tumor inhibition rate", "setting": "MHCC-97H cells; gavage (PO) 36 mg/kg", "result": 62.2, "unit": "%"}, {"measurement": "Weight of tumor", "setting": "MHCC-97H cells; gavage (PO) 36 mg/kg", "result": "0.401 ± 0.530", "unit": "g"}, {"measurement": "Average weight (X ± S), End", "setting": "MHCC-97H cells; gavage (PO) 36 mg/kg", "result": "21.01 ± 3.41"}, {"measurement": "Tumor inhibition rate", "setting": "MHCC-97H cells; [3]", "result": 62.4, "unit": "%"}, {"measurement": "Weight of tumor", "setting": "MHCC-97H cells; [3]", "result": "0.399 ± 0.486", "unit": "g"}, {"measurement": "Disappearance of liver tumor at end of experiment", "setting": "MHCC-97H cells; intraperitoneal high dose 36 mg/kg, 9 animals", "result": "Liver cancer was gone in one animal"}, {"measurement": "Average weight (X ± S), End", "setting": "MHCC-97H cells; [3]", "result": "21.18 ± 1.44"}, {"measurement": "Tumor inhibition rate", "setting": "MHCC-97H cells; [4]", "result": 55.5, "unit": "%"}, {"measurement": "Weight of tumor", "setting": "MHCC-97H cells; [4]", "result": "0.473 ± 0.497", "unit": "g"}, {"measurement": "Average weight (X ± S), End", "setting": "MHCC-97H cells; [4]", "result": "20.61 ± 2.33"}, {"measurement": "Tumor inhibition rate", "setting": "lung cancer cell A549; [3]", "result": 40.7, "unit": "%"}, {"measurement": "Weight of tumor", "setting": "lung cancer cell A549; [3]", "result": "0.224 ± 0.07", "unit": "g"}, {"measurement": "Average weight (X ± S), End", "setting": "lung cancer cell A549; [3]", "result": "20.4 ± 0.3"}, {"measurement": "Tumor inhibition rate", "setting": "lung cancer cell A549; [4]", "result": 23.8, "unit": "%"}, {"measurement": "Weight of tumor", "setting": "lung cancer cell A549; [4]", "result": "0.288 ± 0.08", "unit": "g"}, {"measurement": "Average weight (X ± S), End", "setting": "lung cancer cell A549; [4]", "result": "19.5 ± 0.7"}, {"measurement": "Phosphorylation of TrkB and downstream ERK and Akt", "setting": "TrkB", "result": "significantly inhibited"}]}
